In patent publication US10934312B2, “Tricyclic heterocycle compounds useful as HIV integrase inhibitors” (Merck Sharp & Dohme Corp., priority 2016, dated 2021):

Tested on: HIV-1 (NL4-3 strain)
Assay: Assay for Inhibition of HIV Replication (VIKING, MT4-gag-GFP reporter cells)
Type: cell-based
Details: 0% normal human serum; MT4-GFP cells infected with HIV-1 NL4-3; infected cells at 48 h / 24 h; read-out: VIKING IP50 (nM) with 0% NHS
Procedure: This assay may be useful for assessing the ability of a compound of the present invention to inhibit HIV replication. The assay is a kinetic assay that employs a reporter cell line (MT4-gag-GFP) to quantify the number of new cells infected in each round of replication.
MT4-GFP cells (250,000 cells/ml) are bulk-infected with HIV-1 (NL4-3 strain) at low multiplicity of infection (MOI) in RPMI+10% FBS for 24 hours. Cells are then washed once in RPMI+10% FBS and resuspended in RPMI+0% normal human serum (NHS). Test compounds are serial-diluted in DMSO on ECHO. The infected MT4-GFP cells are added to a 384-well poly-D-lysine coated black plate with clear bottom in which the diluted test compounds are placed. The cells are seeded at 8,000 cells per well and the final DMSO concentration is adjusted to 0.4%. The infected cells (Green GFP cells) are then quantified at both 24 and 48 hours post incubation using Acumen eX3. Viral reproductive ratio (R0) is determined using the number of infected cells at 48 hours divided by the number of infected cells at 24 hours. Percent viral growth inhibition is calculated by [1-(R—Rtripledrug)/(RDMSO—Rtripledrug)]*100. Compound potency IP or IC50 may be determined using a 4-parameter dose response curve analysis.

For `COC1CN2CN(C)C(=O)c3c(O)c(=O)c(C(=O)NCc4cccc(Cl)c4F)c1n32` (single isomer, unassigned) [Compound 30], which IC50 is on record?
The IC50 was 1.5 nM.

For `COCCN1CN2CC(OC)c3c(C(=O)NCc4ccc(F)cc4)c(=O)c(O)c(n32)C1=O` (single isomer, unassigned) [Compound 15], which IC50 is on record?
Its IC50 is 1.9 nM.

Which IC50 does the source give for `COC1CN2CN(C)C(=O)c3c(O)c(=O)c(C(=O)NCc4ccc(F)c(Cl)c4)c1n32` (single isomer, unassigned) [Compound 33] here?
The IC50 was 0.8 nM.

With `COC1CN2CN(C)C(=O)c3c(O)c(=O)c(C(=O)NCc4cccc(Cl)c4F)c1n32` (single isomer, unassigned) [Compound 31] as the compound, how does the IC50 read?
The IC50 was 0.5 nM.

Which IC50 does the source give for `COC1CN2n3c(c(O)c(=O)c(C(=O)NCc4ccc(F)cc4F)c31)C(=O)N(C)C21CCOC1` (stereo not drawn) [Compound 39] here?
The IC50 was 2.4 nM.

With `COC1CN2n3c(c(O)c(=O)c(C(=O)NCc4ccc(F)cc4F)c31)C(=O)N(C)C21CCOC1` (stereo not drawn) [Compound 40] as the compound, how does the IC50 read?
The IC50 was 3.8 nM.

With `CCN1CN2CC(OC)c3c(C(=O)NCc4cccc(Cl)c4F)c(=O)c(O)c(n32)C1=O` (single isomer, unassigned) [Compound 27] as the compound, how does the IC50 read?
Its IC50 is 1.2 nM.

Which IC50 does the source give for `COC1CN2CN(CC3CC3)C(=O)c3c(O)c(=O)c(C(=O)NCc4cccc(Cl)c4F)c1n32` (single isomer, unassigned) [Compound 20] here?
Its IC50 is 1.2 nM.

With `COCCN1CN2CC(OC)c3c(C(=O)NCc4cccc(Cl)c4F)c(=O)c(O)c(n32)C1=O` (single isomer, unassigned) [Compound 12] as the compound, how does the IC50 read?
The IC50 was 2.3 nM.

Which IC50 does the source give for `CCN1CN2CC(OC)c3c(C(=O)NCc4ccc(F)c(Cl)c4F)c(=O)c(O)c(n32)C1=O` (single isomer, unassigned) [Compound 25] here?
The IC50 was 0.9 nM.

Which IC50 does the source give for `COCCN1CN2CC(OC)c3c(C(=O)NCc4cccc(Cl)c4F)c(=O)c(O)c(n32)C1=O` (single isomer, unassigned) [Compound 13] here?
The IC50 was 1 nM.

For `COC1CN2n3c(c(O)c(=O)c(C(=O)NCc4ccc(F)cc4F)c31)C(=O)N(C)C21CCOC1` (stereo not drawn) [Compound 37], which IC50 is on record?
Its IC50 is 8.5 nM.

With `COCCN1CN2CC(OC)c3c(C(=O)NCc4ccc(F)cc4)c(=O)c(O)c(n32)C1=O` (single isomer, unassigned) [Compound 14] as the compound, how does the IC50 read?
The IC50 was 4.6 nM.

With `COCCN1CN2CC(OC)c3c(C(=O)NCc4ccc(F)c(Cl)c4F)c(=O)c(O)c(n32)C1=O` (single isomer, unassigned) [Compound 11] as the compound, how does the IC50 read?
The IC50 was 1.1 nM.

Same assay, conditions: Human immunodeficiency virus 1, NL43, 0% normal human serum; MT4-GFP cells infected with HIV-1 NL4-3; infected cells at 48 h / 24 h; read-out: VIKING IP50 (nM) with 0% NHS

Which IC50 does the source give for `CCN1CN2CC(OC)c3c(C(=O)NCc4ccc(F)cc4F)c(=O)c(O)c(n32)C1=O` (stereo not drawn) [Compound 22] here?
Its IC50 is 2.1 nM.

With `COCCN1CN2CC(OC)c3c(C(=O)NCc4ccc(F)c(Cl)c4F)c(=O)c(O)c(n32)C1=O` (single isomer, unassigned) [Compound 10] as the compound, how does the IC50 read?
Its IC50 is 1.4 nM.

For `COC1CN2CN(C)C(=O)c3c(O)c(=O)c(C(=O)NCc4ccc(F)cc4F)c1n32` (single isomer, unassigned) [Compound 29], which IC50 is on record?
The IC50 was 9.9 nM.

With `CN1CN2CCc3c(C(=O)NCc4c(F)ccc(Cl)c4F)c(=O)c(O)c(n32)C1=O` [Compound 43] as the compound, how does the IC50 read?
Its IC50 is 1.8 nM.

How did the IC50 turn out when `COC1CN2CN(C(C)C)C(=O)c3c(O)c(=O)c(C(=O)NCc4ccc(F)cc4F)c1n32` (stereo not drawn) [Compound 7] was run?
Its IC50 is 13.3 nM.

`CN1CN2CCc3c(C(=O)NCc4ccc(F)cc4F)c(=O)c(O)c(n32)C1=O` [Compound 42] was tested. Which IC50 did it give?
The IC50 was 1.6 nM.

How did the IC50 turn out when `CCN1CN2CCc3c(C(=O)NCc4ccc(F)cc4F)c(=O)c(O)c(n32)C1=O` [Compound 35] was run?
The IC50 was 2.2 nM.

For `COC1CN2CN(CC3CC3)C(=O)c3c(O)c(=O)c(C(=O)NCc4ccc(F)cc4F)c1n32` (single isomer, unassigned) [Compound 18], which IC50 is on record?
Its IC50 is 0.4 nM.

`COCCN1CN2CC(OC)c3c(C(=O)NCc4ccc(F)cc4F)c(=O)c(O)c(n32)C1=O` (single isomer, unassigned) [Compound 9] was tested. Which IC50 did it give?
The IC50 was 1.4 nM.

How did the IC50 turn out when `CCN1CN2CC(OC)c3c(C(=O)NCc4cccc(Cl)c4F)c(=O)c(O)c(n32)C1=O` (single isomer, unassigned) [Compound 26] was run?
The IC50 was 1.5 nM.

For `CCN1CN2CCCc3c(C(=O)NCc4ccc(F)cc4F)c(=O)c(O)c(n32)C1=O` [Compound 36], which IC50 is on record?
Its IC50 is 11.4 nM.

`COC1CN2CN(CC3CC3)C(=O)c3c(O)c(=O)c(C(=O)NCc4cccc(Cl)c4F)c1n32` (single isomer, unassigned) [Compound 19] was tested. Which IC50 did it give?
The IC50 was 2.4 nM.

`CN1CN2CCc3c(C(=O)NCc4c(F)cc(F)cc4F)c(=O)c(O)c(n32)C1=O` [Compound 41] was tested. Which IC50 did it give?
The IC50 was 2.9 nM.

For `COC1CN2CN(CC3CC3)C(=O)c3c(O)c(=O)c(C(=O)NCc4ccc(F)c(Cl)c4)c1n32` (single isomer, unassigned) [Compound 21], which IC50 is on record?
The IC50 was 1 nM.

Which IC50 does the source give for `COCCN1CN2C(=O)N(C)Cc3c(C(=O)NCc4ccc(F)cc4F)c(=O)c(O)c(n32)C1=O` [Compound 5] here?
Its IC50 is 1.7 nM.

How did the IC50 turn out when `CCN1CN2CC(OC)c3c(C(=O)NCc4ccc(F)cc4F)c(=O)c(O)c(n32)C1=O` (single isomer, unassigned) [Compound 23] was run?
Its IC50 is 4.1 nM.

Which IC50 does the source give for `CCN1CN2CC(OC)c3c(C(=O)NCc4ccc(F)c(Cl)c4F)c(=O)c(O)c(n32)C1=O` (single isomer, unassigned) [Compound 24] here?
The IC50 was 1.5 nM.

`CC(C)N1CN2C(=O)N(C)Cc3c(C(=O)NCc4ccc(F)cc4F)c(=O)c(O)c(n32)C1=O` [Compound 4] was tested. Which IC50 did it give?
Its IC50 is 2 nM.

With `COC1CN2n3c(c(O)c(=O)c(C(=O)NCc4ccc(F)cc4F)c31)C(=O)N(C)C21CCOC1` (stereo not drawn) [Compound 38] as the compound, how does the IC50 read?
Its IC50 is 2.6 nM.

How did the IC50 turn out when `CCN1Cn2ccc3c(C(=O)NCc4ccc(F)cc4F)c(=O)c(O)c(n32)C1=O` [Compound 34] was run?
The IC50 was 11.5 nM.

For `COC1CN2CN(C)C(=O)c3c(O)c(=O)c(C(=O)NCc4ccc(F)c(Cl)c4)c1n32` (single isomer, unassigned) [Compound 32], which IC50 is on record?
The IC50 was 1.2 nM.

For `COCCN1CN2CC(OC)c3c(C(=O)NCc4ccccc4F)c(=O)c(O)c(n32)C1=O` (single isomer, unassigned) [Compound 16], which IC50 is on record?
Its IC50 is 1.5 nM.
